Results from US11214803B2, “Modulators of YAP1 expression” (Ionis Pharmaceuticals, Inc., priority 2019, dated 2022).
Strand notation (5' to 3'): a small letter for the sugar, then the base; units joined by * are phosphorothioate-linked, units joined directly phosphodiester-linked; [ ] holds rarer units or linkages, { } end groups; capitals alone tell only the bases. k = constrained ethyl (cEt); [5mC] = 5-methylcytosine; d = 2'-deoxy (DNA)

Tested on: Yap1 mRNA
Assay: Antisense inhibition of human Yap1 in A-431 cells by cEt gapmers, single dose (Example 2, RTS4814)
Assay type: cell-based
Experimental: Modified oligonucleotides were designed to target a Yap1 nucleic acid and were tested for their effect on Yap1 mRNA level in vitro. The modified oligonucleotides were tested in a series of experiments that had similar culture conditions. Cultured A-431 cells at a density of 5,000 cells per well were treated using free uptake with 2,000 nM of modified oligonucleotide. After a treatment period of approximately 48 hours, RNA was isolated from the cells and Yap1 mRNA levels were measured by quantitative real-time RTPCR. Human primer probe set RTS4814 was used to measure mRNA levels. Yap1 mRNA levels were normalized to total RNA content, as measured by RIBOGREEN®. Results are presented in the tables below as percent control of the amount of Yap1 mRNA relative to untreated control cells (% UTC). The modified oligonucleotides with percent control values marked with an asterisk (*) target the amplicon region of the primer probe set. Additional assays may be used to measure the potency and efficacy of the modified oligonucleotides targeting the amplicon region.
The newly designed modified oligonucleotides in the Tables below were designed as 3-10-3 cEt gapmers. The gapmers are 16 nucleosides in length, wherein the central gap segment comprises of ten 2′-deoxynucleosides and is flanked by wing segments on the 5′ direction and the 3′ direction comprising three nucleosides each. Each nucleoside in the 5′ wing segment and each nucleoside in the 3′ wing segment has a cEt sugar modification. The internucleoside linkages throughout each gapmer are phosphorothioate (P═S) linkages. All cytosine residues throughout each gapmer are 5-methylcytosines.
“Start site” indicates the 5′-most nucleoside to which the gapmer is targeted in the human gene sequence. “Stop site” indicates the 3′-most nucleoside to which the gapmer is targeted human gene sequence. […] Activity ofthe modified oligonucleotide may be defined in a different experiment.

[1] = Table 5, A-431 cells, 5,000 cells per well, free uptake, 2,000 nM modified oligonucleotide, approx. 48 hours, RTS4814, normalized to RIBOGREEN, Yap1 mRNA relative to untreated control cells
[2] = Table 25, Yap1 mRNA as percent of untreated control, 3-10-3 cEt gapmers targeting SEQ ID NO.: 1, and 2
[3] = Table 23, Yap1 mRNA as percent of untreated control, 3-10-3 cEt gapmers, single dose
[4] = Table 33, Yap1 mRNA, percent of untreated control, 3-10-3 cEt gapmers targeting SEQ ID NO.: 1, and 2
[5] = A-431 cells, 5,000 cells per well, free uptake, 2,000 nM modified oligonucleotide, approx. 48 hours, RTS4814, normalized to RIBOGREEN, Table 4, asterisk (*) = targets amplicon region of primer probe set
[6] = Table 19, A-431 cells, 5,000 cells per well, free uptake, 2,000 nM modified oligonucleotide, approx. 48 hours, RTS4814, normalized to RIBOGREEN, Yap1 mRNA as percent of untreated control
[7] = Table 32, Yap1 mRNA, percent of untreated control, 3-10-3 cEt gapmers targeting SEQ ID NO.: 1, and 2
[8] = Table 18, A-431 cells, 5,000 cells per well, free uptake, 2,000 nM modified oligonucleotide, approx. 48 hours, RTS4814, normalized to RIBOGREEN, Yap1 mRNA as percent of untreated control
[9] = Table 6, A-431 cells, 5,000 cells per well, free uptake, 2,000 nM modified oligonucleotide, approx. 48 hours, RTS4814, normalized to RIBOGREEN, Yap1 mRNA relative to untreated control cells
[10] = Table 22, Yap1 mRNA as percent of untreated control, 3-10-3 cEt gapmers, single dose
[11] = Table 20, Yap1 mRNA, percent of untreated control, 3-10-3 cEt gapmers targeting SEQ ID NO.: 1 and 2

716509 (antisense kT*kA*kT*dA*d[5mC]*d[5mC]*d[5mC]*dA*dA*dT*dT*dT*dT*kG*k[5mC]*kA) [Compound 716509]
YAP1 (% UTC) [1]: 70 % UTC

1075947 (k[5mC]*kT*kT*dT*dA*dT*dA*dG*dG*dA*dA*dT*dA*kG*kA*kG; antisense) [Compound 1075947]
YAP1 (% UTC) [2]: 95 % UTC

1074921 (antisense k[5mC]*kA*k[5mC]*dT*d[5mC]*dA*dA*dG*dT*dT*dA*d[5mC]*dA*kT*k[5mC]*k[5mC]) [Compound 1074921]
YAP1 (% UTC) [3]: 65 % UTC

1076275 (kG*kT*kA*dT*dT*dA*dG*dA*dT*dA*dA*dA*dG*k[5mC]*kA*kG; antisense) [compound 1076275]
YAP1 (% UTC) [4]: 10 % UTC

716406 (kA*k[5mC]*kT*d[5mC]*dT*d[5mC]*dA*dT*d[5mC]*dT*d[5mC]*dG*dA*kG*kA*kG; antisense) [Compound 716406]
YAP1 (% UTC) [5]: 117 % UTC

1076549 (antisense kG*kT*kG*d[5mC]*dA*dA*dA*dA*dT*dA*d[5mC]*d[5mC]*dT*kT*kT*kG) [Compound 1076549]
YAP1 (% UTC) [6]: 8 % UTC

1075954 (kA*kT*kT*dT*dA*dA*dG*dG*d[5mC]*dT*dG*dT*dG*kT*kT*k[5mC]; antisense) [compound 1075954]
YAP1 (% UTC) [7]: 50 % UTC

1076484 (antisense kG*kA*kA*dA*d[5mC]*dG*dG*dG*dA*dA*dA*dT*d[5mC]*kA*kT*kA) [Compound 1076484]
YAP1 (% UTC) [8]: 10 % UTC

716465 (kG*k[5mC]*kT*d[5mC]*dT*dT*dT*d[5mC]*dT*dA*dG*dA*dA*k[5mC]*kA*k[5mC]; antisense) [Compound 716465]
YAP1 (% UTC) [9]: 82 % UTC

1075955 (kG*kA*k[5mC]*d[5mC]*dT*dA*dT*dA*dA*dT*dA*d[5mC]*dA*kG*kA*kA; antisense) [compound 1075955]
YAP1 (% UTC) [4]: 85 % UTC

716464 (kT*kA*k[5mC]*dT*dT*d[5mC]*dA*dA*dA*d[5mC]*dA*dT*d[5mC]*kT*kG*k[5mC]; antisense) [Compound 716464]
YAP1 (% UTC) [1]: 62 % UTC

1075625 (kA*kA*kT*d[5mC]*dT*dA*dT*dA*dA*d[5mC]*d[5mC]*d[5mC]*dT*kT*kA*kT; antisense) [Compound 1075625]
YAP1 (% UTC) [3]: 49 % UTC

1074245 (antisense kA*kG*kA*dA*dG*dT*dA*dT*d[5mC]*dT*d[5mC]*dT*dG*kA*k[5mC]*k[5mC]) [Compound 1074245]
YAP1 (% UTC) [6]: 5 % UTC

1074123 (antisense kG*k[5mC]*kT*dG*d[5mC]*dG*dA*dG*dG*d[5mC]*dA*d[5mC]*dT*k[5mC]*kG*kG) [Compound 1074123]
YAP1 (% UTC) [2]: 72 % UTC

1075729 (kT*kA*kT*dT*dT*dA*dA*dA*dA*dA*dT*dA*dG*k[5mC]*kG*k[5mC]; antisense) [compound 1075729]
YAP1 (% UTC) (Yap1 mRNA as percent of untreated control, A-431 cells, 3-10-3 cEt gapmers targeting SEQ ID NO.: 1, and 2, Table 31): 88 % UTC

1075880 (kA*kT*kT*dA*dA*d[5mC]*dT*dA*d[5mC]*dA*d[5mC]*d[5mC]*dA*k[5mC]*kG*kA; antisense) [Compound 1075880]
YAP1 (% UTC) [10]: 30 % UTC

1075250 (kA*kA*kT*dT*dA*d[5mC]*dG*dA*dT*dT*dA*dG*dA*kT*k[5mC]*kA; antisense) [compound 1075250]
YAP1 (% UTC) [7]: 55 % UTC

1076070 (kA*kT*kT*dA*dG*dT*dA*dA*dT*dG*d[5mC]*dA*d[5mC]*kA*kG*kG; antisense) [Compound 1076070]
YAP1 (% UTC) [11]: 6 % UTC

1076421 (kA*kA*kT*dT*dA*dT*dG*dA*d[5mC]*d[5mC]*dT*d[5mC]*d[5mC]*kA*kT*kG; antisense) [Compound 1076421]
YAP1 (% UTC) [6]: 65 % UTC

1076363 (k[5mC]*kA*kT*dA*dA*dA*dA*dG*dT*d[5mC]*d[5mC]*dA*d[5mC]*kT*kA*kA; antisense) [Compound 1076363]
YAP1 (% UTC) [2]: 72 % UTC

716556 (kG*k[5mC]*kA*dT*dT*dA*dA*dA*dG*dA*dA*dT*dT*k[5mC]*kT*k[5mC]; antisense) [Compound 716556]
YAP1 (% UTC) [5]: 39 % UTC

1075911 (kT*kG*kA*d[5mC]*dA*dA*dA*dA*d[5mC]*dA*dG*dG*d[5mC]*kA*k[5mC]*k[5mC]; antisense) [Compound 1075911]
YAP1 (% UTC) (Table 21, Yap1 mRNA, percent of untreated control, 3-10-3 cEt gapmers targeting SEQ ID NO.: 1 and 2): 41 % UTC

1075556 (kT*kG*kG*d[5mC]*dA*dA*dA*dA*dG*dA*dG*dT*dG*kG*kT*kG; antisense) [Compound 1075556]
YAP1 (% UTC) [8]: 68 % UTC

1075507 (kG*kT*kA*d[5mC]*dA*dA*d[5mC]*d[5mC]*dT*dA*dG*dT*dG*kA*kT*kA; antisense) [compound 1075507]
YAP1 (% UTC) [4]: 82 % UTC

1076171 (kA*kT*kT*dA*dG*dT*dA*dA*dA*dG*dA*dG*dT*kA*k[5mC]*kT; antisense) [Compound 1076171]
YAP1 (% UTC) [2]: 30 % UTC

1074504 (kT*k[5mC]*kG*dA*dG*dA*dT*dT*dT*dA*dA*dA*dT*kA*kA*kG; antisense) [Compound 1074504]
YAP1 (% UTC) [10]: 76 % UTC

1074150 (antisense kG*kG*k[5mC]*d[5mC]*dG*dA*dG*dG*dT*dG*dG*dA*dG*kA*kA*kG) [Compound 1074150]
YAP1 (% UTC) [11]: 85 % UTC

1076136 (k[5mC]*kA*kA*d[5mC]*dA*dA*d[5mC]*d[5mC]*dT*d[5mC]*dA*dT*dG*kT*kA*kA; antisense) [Compound 1076136]
YAP1 (% UTC) [10]: 60 % UTC

1075251 (kT*kA*kA*dT*dT*dA*d[5mC]*dG*dA*dT*dT*dA*dG*kA*kT*k[5mC]; antisense) [compound 1075251]
YAP1 (% UTC) [4]: 79 % UTC

1075588 (kA*k[5mC]*kT*dT*dA*dT*dT*dA*dG*d[5mC]*dA*d[5mC]*d[5mC]*kT*kG*kG; antisense) [Compound 1075588]
YAP1 (% UTC) [8]: 27 % UTC

1076553 (antisense kT*kG*kG*dG*dA*dA*dT*dA*dA*dT*dT*dT*dG*kG*k[5mC]*k[5mC]) [Compound 1076553]
YAP1 (% UTC) [3]: 69 % UTC

1075753 (k[5mC]*kT*kA*dG*dA*dA*d[5mC]*d[5mC]*dT*dT*dT*dT*d[5mC]*k[5mC]*kA*kG; antisense) [Compound 1075753]
YAP1 (% UTC) [3]: 65 % UTC

1075077 (antisense kT*kA*kT*dA*d[5mC]*dG*dG*dT*d[5mC]*d[5mC]*dA*dT*dA*kA*k[5mC]*kA) [Compound 1075077]
YAP1 (% UTC) [6]: 35 % UTC

1075909 (kA*kA*kA*dT*dA*dA*dG*dG*dA*dG*dT*dA*dG*kG*kT*kG; antisense) [Compound 1075909]
YAP1 (% UTC) [6]: 93 % UTC

1075952 (antisense k[5mC]*kT*kA*dT*dA*dT*dA*d[5mC]*d[5mC]*dT*dG*d[5mC]*dT*kT*k[5mC]*kT) [compound 1075952]
YAP1 (% UTC) (Yap1 mRNA as percent of untreated control, A-431 cells, 3-10-3 cEt gapmers targeting SEQ ID NO.: 1, and 2, Table 30): 41 % UTC

1076422 (kG*kA*kA*dT*dT*dA*dT*dG*dA*d[5mC]*d[5mC]*dT*d[5mC]*k[5mC]*kA*kT; antisense) [Compound 1076422]
YAP1 (% UTC) [11]: 13 % UTC

716450 (kA*kA*k[5mC]*dA*dG*dA*dT*dT*d[5mC]*dA*d[5mC]*dT*dA*kA*kT*kA; antisense) [Compound 716450]
YAP1 (% UTC) [9]: 83 % UTC

1075621 (kG*kA*kT*dT*dA*dA*d[5mC]*dA*dT*dT*dG*dA*dT*kA*k[5mC]*kT; antisense) [Compound 1075621]
YAP1 (% UTC) [6]: 61 % UTC
